Assay [1] has as its target T1, Human phosphodiesterase-1B (Homo sapiens, UniProt Q01064).
T1 construct: host or cells: Sf9 cells
Put plainly: PDE1B (h) assay. The format is biochemical. The procedure: Method. • Human phosphodiesterase-1B quantified by measuring the formation of 5′GMP from cGMP using a human recombinant enzyme expressed in Sf9 cells
(§1) The test compound (compound 72), reference compound or water (control) were added to a buffer containing 40 mM Tris/HCl (pH 7.4), 8 mM MgCl2 0.21% BSA, 0.5 μg/ml calmoduline and 0.5 mM CaCl2), 1.125 μM cGMP and 0.027 μCi [3H]cGMP. Thereafter, the reaction was initiated by addition of the enzyme (about 0.2 U) and the mixture was incubated for 20 min at 22° C. For basal control measurements, the enzyme was omitted from the reaction mixture. Following incubation SPA beads were added. After 30 min at 22° C. under shaking, the amount of [3H]5′GMP was quantified with a scintillation counter (MicroBeta, Perkin Elmer). The results were expressed as a percent inhibition of the control enzyme activity. The standard inhibitory reference compound was Nitrendipine, which was tested in each experiment at several concentrations to obtain an inhibition curve from which its IC50 value was calculated. • Human phosphodiesterase-5 quantified by measuring the formation of 5′GMP from cGMP using an enzyme isolated from human platelets at Eurofins-Cerep.

For assay [2], the target named is T2, Human phosphodiesterase-5 (Homo sapiens, UniProt O76074).
T2 construct: using an enzyme isolated from human platelets at Eurofins-Cerep; tissue Eurofins-Cerep; host or cells: human platelets
Put plainly: PDE5 (h) (non-selective) assay. It counts as biochemical. The procedure:
as §1
The test compound (compound 72), reference compound or water (control) were added to a buffer containing 40 mM Tris/HCl (pH 7.8), 3 mM MgCl2, 1.4 mM DTT, 0.21% BSA, 200 mM NH4Cl, 1 μM cGMP and 0.1 μCi [3H]cGMP. […] After 20 min at 22° C. under shaking, the amount of [3H]5′GMP was quantified with a scintillation counter (MicroBeta, Perkin Elmer). […]

Assay [3] has as its target T3, human ENT1 (Homo sapiens, UniProt Q99808).
T3 sequence (Q99808 1-456): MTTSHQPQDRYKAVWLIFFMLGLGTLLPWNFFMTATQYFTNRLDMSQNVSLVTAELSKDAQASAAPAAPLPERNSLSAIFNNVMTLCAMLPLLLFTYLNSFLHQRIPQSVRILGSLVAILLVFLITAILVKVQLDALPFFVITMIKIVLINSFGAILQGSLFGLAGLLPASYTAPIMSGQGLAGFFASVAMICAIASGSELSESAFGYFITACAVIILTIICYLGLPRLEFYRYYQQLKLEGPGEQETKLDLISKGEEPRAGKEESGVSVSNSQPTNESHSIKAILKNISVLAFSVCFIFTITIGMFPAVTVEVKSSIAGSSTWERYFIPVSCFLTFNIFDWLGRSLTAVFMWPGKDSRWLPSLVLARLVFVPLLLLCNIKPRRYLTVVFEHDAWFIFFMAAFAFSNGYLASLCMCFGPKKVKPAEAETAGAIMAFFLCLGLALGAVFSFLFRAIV
Nature of the assay: Uridine transport inhibition assay (3H-uridine uptake, MDCKII-ENT1-LV cells). It counts as cell-based. Conditions: 3H-uridine (1 μM), 1 min at 25° C. The text has this:
Purpose. The aim of this study was to determine the potency of equilibrative nucleoside transporter 1 (ENT1) inhibitors by measuring ENT1-mediated transport is the cellular uptake assay. The human ENT1 transporter can be stably expressed in Madin-Darby Canine Kidney II (MDCKII) cells via transduction. Uridine is efficiently transported by ENT1 and is used as probe in the assay as 3H-uridine. The interaction is detected as the modulation of the initial rate of 3H-uridine transport by human ENT1 into MDCKII-ENT1-LV cells stably expressing ENT1 uptake transporter.

Where two headings read alike, the source gives them in different places.

As usually defined, the IC50 is the point on the concentration scale where inhibition reaches its midpoint. For the compound `COCCN(CCOC)c1nc(N2CCN(C)C(=O)C2)c2nc(N(CCOC)CCOC)nc(N3CCC(OC)CC3)c2n1` [Compound 72, 4-(2,6-bis(bis(2-methoxyethyl)amino)-8-(4-methoxypiperidin-1-yl)pyrimido[5,4-d]pyrimidin-4-yl)-1-methylpiperazin-2-one], the IC50 in assay [1] was greater than 10000 nM; in assay [2] (read-out: PDE5 (h) (non-selective) IC50) it was 1000 to 10000 nM; in assay [2] (read-out: PDE5 IC50), 1080 nM; in assay [3] it was less than 100 nM.

These data come from patent US20230146675A1, “PYRIMIDO[5,4-d]PYRIMIDINE DERIVATIVES AS ENT INHIBITORS FOR THE TREATMENT OF CANCERS, AND COMBINATION THEREOF WITH ADENOSINE RECEPTOR ANTAGONISTS” (ITEOS BELGIUM SA, priority 2020, published 2023).
